Results reported in patent US4816448A, “Thermal isomer of difficidin and thermal isomer of oxydifficidin antibacterials” (Merck & Co., Inc., priority 1987, dated 1989).

Key:
[1] = Thermal isomerization of difficidin and oxydifficidin, equilibrium; type: physicochemical; conditions: for time to reach equilibrium with its thermal isomer / converted to thermal isomer at equilibrium: 60° C.; for converted to thermal isomer at equilibrium: suitable solvent such as water, alcohol or ethyl acetate
Experimental: Alternatively, the thermal isomers of the subject invention can be prepared by converting difficidin and oxydifficidin to the thermal isomer of difficidin and thermal isomer of oxydifficidin, respectively. Difficidin and oxydifficidin can be prepared and purified as described in U.S. Pat. No. 4,545,991. The thermal isomers can be prepared by thermally heating (to about 60° C.) the difficidin and oxydifficidin in a suitable solvent system such as water, alcohol or ethyl acetate. At 60° C., it takes about 24 hours for difficidin and oxydifficidin to reach equilibrium with its thermal isomer. At equilibrium, about 25% of the difficidin has converted to the thermal isomer and about 66% of the oxydifficidin has converted to its thermal isomer. […] The thermal isomer can then be separated from the equilibrium mixture by standard chromatographic techniques.

[2] = Isomerization of difficidin at 60° C., HPLC (Example IV); type: physicochemical; conditions: tetrahydrofuran
Experimental: Difficidin is stored as the potassium salt at pH7 in aqueous methanol solution at -80° C. A 0.67 ml aliquot containing 400 mcg of difficidin was evaporated to an oil and taken up in 0.2 ml of tetrahydrofuran. The sample was heated at 60° C. for 3 days.

[3] = test system: P. aeruginosa; test: MIC, standard in vitro assay (Table I); type: cell-based, Pseudomonas aeruginosa; conditions: Ps. aeruginosa; in most cases
Description: (§1) Using standard in vitro assay techniques, minimal inhibitory concentrations (MIC) have been determined for the thermal isomer of difficidin and the thermal isomer of oxydifficidin against a number of bacteria.

[4] = test system: Salmonella typhimurium; test: MIC, standard in vitro assay (Table I); type: cell-based; conditions: in most cases
Description: as §1

[5] = test system: Serratia marcescens; test: MIC, standard in vitro assay (Table I); type: cell-based; conditions: in most cases
Description: as §1

[6] = test system: aerobic microorganisms; test: Antibacterial activity against aerobic microorganisms; type: cell-based; conditions: aerobic microorganisms such as Pseudomonas aeruginosa and Staphylococcus aureus
Description: as §1

[7] = test system: anaerobic bacteria; test: Antibacterial activity against anaerobic bacteria; type: cell-based
[8] = test system: Proteus; test: Antibacterial activity, relative potency; type: cell-based; conditions: in most cases
Description: as §1

[9] = test system: S. aureus; test: MIC, standard in vitro assay (Table I); type: cell-based, Staphylococcus aureus; conditions: in most cases
Description: as §1

[10] = Isomerization of oxydifficidin at 60° C., HPLC (Example V); type: physicochemical; conditions: under argon, tetrahydrofuran
Experimental: Pure oxydifficidin was stored as the potassium salt, pH7, in aqueous methanol solution at -80° C. A 28 ml aliquot, containing 95 mg of antibiotic, was treated with 2 mg. of 2,6-di-t-butyl-phenol and evaporated to 3-4 ml. The concentrate was diluted with tetrahydrofuran to a final volume of 44 ml. The solution was heated under argon at 60° C.

Compound | time to reach equilibrium with its thermal isomer [1] | converted to thermal isomer at equilibrium [1] | isomerization at room temperature [1] | Composition ([2]; 0 days) [%] | Composition ([2]; 3 days) [%] | effectiveness relative to thermal isomer of oxydifficidin [3] | effectiveness relative to thermal isomer of oxydifficidin [4] | effectiveness relative to thermal isomer of oxydifficidin [5] | potency against aerobic microorganisms vs thermal isomer of oxydifficidin [6] | activity against anaerobic bacteria [7] | effectiveness relative to thermal isomer of oxydifficidin [8] | effectiveness relative to thermal isomer of oxydifficidin [9] | Composition ([10]; 17 hrs., HPLC) [%] | Composition ([10]; 24 hrs., HPLC) [%] | Composition ([10]; 41 hrs., HPLC) [%] | Composition ([10]; time 0, HPLC) [%]
difficidin | about 24 hours | about 25% | some isomerization takes place | 98 | 76 |  |  |  |  |  |  |  |  |  |  | 
C=C/C=C(\C)CCC1C/C=C\C=C(\C)C(OP(=O)(O)O)CC/C=C/C=C\C=C/CCC(C)C(=C)CC(=O)O1 (stereo not drawn) [thermal isomer of difficidin, (Z,Z,E,Z,Z,)-16-dihydroxyphosphinoxy-5,7-dimethyl-4-methylene-22-((E)-3-methyl-3,5-hexadienyl)oxacyclo-docosa-8,10,12,17,19-pentaen-2-one] |  |  |  | 2 | 24 | four times more effective | four times more effective | four times more effective | more potent than the thermal isomer of oxydifficidin | active against a wide spectrum of anaerobic bacteria | four times more effective | four times more effective |  |  |  | 
oxydifficidin [reference compound] | about 24 hours | about 66% | some isomerization takes place |  |  |  |  |  |  |  |  |  | 39 | 36 | 34 | 98
